{"source": "patent US20080293818A1", "about": "“Regulator of Physiological Function of Ghrelin and Use Thereof” (priority 2004, published 2008)", "key": {"[1]": {"system": "acyl-modified and total ghrelin in the stomach", "assay": "Time course of acyl-modified ghrelin production after glyceryl trioctanoate ingestion", "format": "in vivo, mouse", "procedure": "To examine time-dependent changes in the production of n-octanoyl ghrelin after the ingestion of a glyceryl trioctanoate, mice were fed with glyceryl trioctanoate-containing chow (5%, w/w) after a 12-hour fasting period. The concentrations of acyl-modified and total ghrelins in the stomach were measured at the indicated times.\nA represents acyl-modified ghrelin content measured by ghrelin N-RIA. B represents total ghrelin content measured by ghrelin C-RIA. After 12-hour fasting, glyceryl trioctanoate (5% w/w)-containing chow was given to mice beginning at the time (0 hour) indicated by the arrow. Stomach samples were isolated from control mice fed standard laboratory chow (closed circles) and mice fed glyceryl trioctanoate (open circles) at the indicated times. Each point represents mean ±S.D. (n=8). Asterisks indicate statistical significance. *, p<0.05; **, p<0.01 and ***, p<0.001 vs. control."}, "[2]": {"system": "des-acyl and acyl-modified ghrelin peptides in the stomach", "assay": "Molecular forms of stomach ghrelin peptide after ingestion (HPLC fractionation, C-RIA)", "format": "in vivo, mouse", "procedure": "(§1) Male C57BL/6J mice weighing 20-25 g (10-12 week old) were maintained under controlled temperature (21-23° C.) and light conditions (light on 0700-1900) with ad libitum access to food and water. Medium-chain fatty acids (MCFAs), i.e., n-hexanoic, n-octanoic, and n-lauric acids (Sigma-Aldrich Japan Co., Ltd., Tokyo), were dissolved in water at 5 mg/ml. n-Palmitic acid, a common long-chain fatty acid (LCFA) (Sigma-Aldrich Japan Co., Ltd., Tokyo), was mixed into standard laboratory chow (CLEA Rodent Diet CE-2, CLEA Japan, Osaka) at a concentration of 1% (w/w), to equilibrate the total intake amount of this lipid to the other medium-chain fatty acids contained in the food. Medium- and long-chain triglycerides (MCTs and LCTs), i.e., glyceryl trihexanoate, trioctanoate, tridecanoate and tripalmitates (Wako Pure Chemical, Osaka, Japan), were mixed with standard laboratory chow at a concentration of 5% (w/w). Whole stomach tissues from treated mice were collected at the indicated times (0-14 days) after ingesting the free fatty acid- or triacylglyceride-containing food. Fresh tissue samples from these mice were diced and boiled for 5 minutes in a 10-fold volume of water. The tissue-containing solution was then adjusted to 1M acetic acid after cooling and then homogenized with a Polytron mixer. The supernatant, obtained after centrifugation at 15,000 rpm for 15 minutes, was then lyophilized. The lyophilized material was dissolved in RIA buffer and subjected to ghrelin C- and N-RIA. To elucidate the forms of ghrelin peptides modified by different acyl groups, extracted stomach peptides were collected using a Sep-Pak Plus C18 cartridge (Waters, Milford, Mass.) and subjected to C18 RP-HPLC (Symmetry 300, 3.9×150 mm, Waters) with a linear gradient from 10 to 60% CH3CN/0.1% TFA at a flow rate of 1.0 ml/minute for 40 minutes. Five hundred micro-litter fractions were collected. Ghrelin peptide content in each fraction was measured by ghrelin C- and N-RIA as described above. Degradation of ghrelin was not observed during the extraction.\nTo clarify what molecular forms of ghrelin peptide are present after the ingestion of triacylglycerol (triacylglycerin), peptide extracts from stomachs of mouse fed chow containing glyceryl trihexanoate (C6:0-MCT), glyceryl trioctanoate (C8:0-MCT), glyceryl tridecanoate (C10:0-MCT), and standard laboratory chow (Control) were fractionated by HPLC, and measured for ghrelin immunoreactivity by C-RIA. […] Based on the observed retention times of synthetic acyl-modified ghrelin peptides, peaks a, d, h, and k corresponded to des-acyl ghrelin, peaks b, f, i, and 1 corresponded to n-octanoyl (C8:0) ghrelin, and peaks c, g, j, and m corresponded to n-decenoyl (10:1) ghrelin.\nMale C57BL/6J mice were fed chow mixed with 5% (w/w) glyceryl trihexanoate (C6:0-MCT), glyceryl trioctanoate (C8:0-MCT), or glyceryl tri-decanoate (C10:0-MCT) for 14 days. The concentrations of des-acyl ghrelin, n-hexanoyl ghrelin (C6:0-ghrelin), n-octanoyl ghrelin (C8:0-ghrelin), n-decenoyl ghrelin (C10:1-ghrelin), and n-decanoyl ghrelin (C10:0-ghrelin) from stomach samples (from 0.2 mg wet weight) were measured by ghrelin C-RIA after HPLC fractionation."}, "[3]": {"system": "acyl-modified and total ghrelin in the stomach", "assay": "Stomach ghrelin content after medium- to long-chain triacylglycerol ingestion (N-RIA / C-RIA)", "format": "in vivo, mouse", "details": "mice, 5% (w/w) in chow, two weeks, N-RIA", "procedure": "(§2) RIAs specific for ghrelin were performed as previously described [D2]. Two polyclonal antibodies were raised in rabbits against the N-terminal (Gly^1-Lys^11 with O-n-octanoylation at Ser^3) and C-terminal (Gln^13-Arg^28) fragments of rat ghrelin. RIA incubation mixtures were composed of 100 μl of either standard ghrelin or an unknown sample, with 200 μl of antiserum diluted in RIA buffer (50 mM sodium phosphate buffer (pH 7.4), 0.5% BSA, 0.5% Triton-X100, 80 mM sodium chloride (NaCl), 25 mM disodium ethylenediamine-tetraacetate (EDTA 2-Na) and 0.05% sodium azide (NaN3)) containing 0.5% normal rabbit serum. Anti-rat ghrelin [D1-D11] and anti-rat ghrelin [D13-D28] antisera were used at final dilutions of 1/3,000,000 and 1/20,000, respectively. After a 12-hour incubation at 4° C., 100 μl of ^125I-labeled ligand (20,000 cpm) was added for an additional 36-hour incubation. Then, 100 μl of anti-rabbit goat antibody was added. After incubation for 24 hours at 4° C., free and bound tracers were separated by centrifugation at 3,000 rpm for 30 min. Pellet radioactivity was quantified in a gamma counter (ARC-600, Aloka, Tokyo). All assays were performed in duplicate at 4° C.\nas §1\nOrally ingested triacylglycerols are intraluminally hydrolyzed and absorbed through the gastro-intestinal mucosa as free fatty acids or monoglycerides. Thus, ingested triacylglycerols may serve as a source of free fatty acids [D26]. To examine if ingested triacylglycerols are used for acyl-modification of ghrelin, mice were fed chow mixed with 5% (w/w) glyceryl trihexanoate (C6), trioctanoate (C8), tridecanoate (C10), and tripalmintate (C16). After two weeks, gastric peptides were extracted. Ghrelin concentration in the stomach of these mice and in that from mice fed standard laboratory chow (Control) (n=8) are shown. The content of acyl-modified and total ghrelins was measured by N- and C-RIA. […]"}, "ghrelin mRNA": {"system": "ghrelin mRNA", "assay": "Northern blot of stomach ghrelin mRNA after glyceryl trioctanoate ingestion", "format": "in vivo, mouse", "details": "after 4 days of ingestion", "text": "Total RNAs were extracted from the stomachs of male C57BL/6J mice (12 week old) by acid guanidium thiocyanate-phenol chloroform extraction [D24] using TRIzol reagent (Invitrogen, Carlsbad Calif., USA). Two μg of total RNA was electrophoresed through a 1% agarose gel containing formaldehyde, and then transferred to a Zeta-Probe blotting membrane (Bio-Rad Laboratories, Hercules, Calif.). Membranes were hybridized with a ^32P-labeled rat ghrelin cDNA probe in hybridization buffer containing 50% formamide, 5×SSPE, 5×Denhardt's solution, 1% sodium dodecyl sulfate (SDS), and 100 μg/ml denatured salmon sperm. After an overnight hybridization at 37° C., membranes were washed and exposed to BioMax-MS film (Eastman Kodak, Rochester, N.Y.) for 12 hours at −80° C. Ghrelin mRNA levels were quantified using a Bioimaging analyzer BAS 2000 (Fujix, Tokyo, Japan).\nTo examine if the ingestion of MCTs affects the expression of ghrelin mRNA, mouse stomach RNA was quantitated by Northern blot analysis after 4 days of glyceryl trioctanoate ingestion.\nEach lane contained 2 μg of total RNA. The lower panel indicates 28S and 18S ribosomal RNAs internal controls."}, "[4]": {"system": "anti-rat ghrelin [D1-D11] antiserum", "assay": "Cross-reactivity of ghrelin N-RIA", "format": "binding, rabbit", "details": "for cross-reactivity of N-RIA: relative to n-octanoyl ghrelin", "procedure": "as §2\nThe cross-reactivity of N-RIA to n-decanoyl ghrelin and that to n-hexanoyl ghrelin are 20% and 0.3%, respectively. Anti-rat ghrelin [D13-D28] antiserum equally recognized both des-acyl and all acylated forms of ghrelin peptide. In the following sections, the RIA system using the antiserum against the N-terminal fragment of rat ghrelin [D1-D11] is termed N-RIA, while the RIA system using antiserum against the C-terminal fragment [D13-D28] is termed C-RIA."}, "plasma ghrelin peptides": {"system": "plasma ghrelin peptides", "assay": "Molecular forms of circulating (plasma) ghrelin after glyceryl triheptanoate ingestion", "format": "in vivo, mouse", "details": "fed 4 days, HPLC, C-RIA", "procedure": "Plasma samples were prepared as previously described [D2]. Whole blood samples were immediately transferred to chilled polypropylene tubes containing EDTA-2 Na (1 mg/ml) and aprotinin (1,000 kallikrein inactivator units/ml) and centrifuged at 4° C. Immediately after separation of the plasma, hydrogen chloride was added to the sample at final concentration of 0.1 N and then diluted with an equal volume of physiological saline. The sample was loaded onto a Sep-Pak C18 cartridge (Waters, Milford, Mass.) pre-equilibrated with 0.1% trifluoroacetic acid (TFA) and 0.9% NaCl. The cartridge was washed with 0.9% NaCl and 5% acetonitrile (CH3CN)/0.1% TFA, and then eluted with 60% CH3CN/0.1% TFA. The eluate was then lyophilized and residual materials were redissolved in 1 M acetic acid (AcOH) and adsorbed onto a SP-Sephadex C-25 column (H^+-form, Pharmacia, Uppsala, Sweden) pre-equilibrated in 1 M AcOH. Successive elution with 1 M AcOH, 2 M pyridine, and 2 M pyridine-AcOH (pH 5.0) provided three fractions: SP-I, SP-II and SP-III. […] Ghrelin peptide content in each fraction was measured by ghrelin C-RIA as described above.\nPlasma samples collected from control mice fed standard chow (A) and glyceryl triheptanoate-treated mice (B) were fractionated by HPLC and measured for ghrelin immunoreactivity by C-RIA. […]"}, "[5]": {"system": "n-heptanoyl ghrelin in the stomach", "assay": "Molecular forms of stomach ghrelin after glyceryl triheptanoate ingestion (HPLC, C-RIA and N-RIA)", "format": "in vivo, mouse", "procedure": "as §1\nMale C57BL/6J mice weighing 20-25 g (10-12 week old) were maintained under controlled temperature (21-23° C.) and light conditions (light on 0700-1900) with ad libitum access to food and water. Glyceryl triheptanoate (Fluka Chemie GmbH, Buchs, Switzerland) was mixed with standard laboratory chow at a concentration of 5% (w/w). Four days after mice were fed glyceryl triheptanoate-containing food, stomachs (total 1,000 mg) were recovered from mice (n=7). The total consumption of glyceryl triheptanoate-containing food was approximately 13.5 g/mouse, amounting to 675 mg total glyceryl triheptanoate ingested by each mouse. Stomachs were minced and boiled for 5 minutes in 5× volumes of water to inactivate intrinsic proteases. […]"}, "[6]": {"details": "mice, 5% (w/w) in chow, 14 days, from 0.2 mg wet weight, C-RIA after HPLC, mean ± S.D."}, "[7]": {"details": "stomach extract, HPLC fraction, 0.2 mg stomach tissue equivalent"}}, "note": "Marks after values point to notes of the source that are not given here.", "data": [{"molecule": "CCCCCCCC(=O)OCC(COC(=O)CCCCCCC)OC(=O)CCCCCCC", "note": "[glyceryl trioctanoate]", "values": [{"measurement": "stomach concentration of acyl-modified ghrelin vs normal chow", "setting": "[1]; 14 days after ingestion, N-RIA", "value": "remained significantly higher"}, {"measurement": "onset of increase of acyl-modified ghrelin content in the stomach", "setting": "[1]; mice, 5% w/w chow after 12-hour fasting, N-RIA", "value": "increased three hours after the ingestion"}, {"measurement": "time to maximal levels of n-octanoyl ghrelin in the stomach after starting ingestion", "setting": "[1]; mice, 5% w/w chow continuously supplied", "value": 24, "unit": "h"}, {"measurement": "stomach content of total ghrelin", "setting": "[1]; time course, C-RIA", "value": "no significant changes"}, {"measurement": "C6:0-ghrelin (n-hexanoyl ghrelin) concentration in the stomach", "setting": "[2]; [6]", "value": "12.4 ± 4.9"}, {"measurement": "C8:0-ghrelin (n-octanoyl ghrelin) concentration in the stomach", "setting": "[2]; [6]", "value": "774.0 ± 89.1^c)"}, {"measurement": "C10:0-ghrelin (n-decanoyl ghrelin) concentration in the stomach", "setting": "[2]; [6]", "value": "8.1 ± 3.1"}, {"measurement": "Des-acyl ghrelin concentration in the stomach", "setting": "[2]; [6]", "value": "236.6 ± 21.1"}, {"measurement": "C10:1-ghrelin (n-decenoyl ghrelin) concentration in the stomach", "setting": "[2]; mice, 5% (w/w) in chow, 14 days, from 0.2 mg wet weight, C-RIA after HPLC, mean ± S.D., fraction holds unidentified ghrelin molecules too", "value": "51.5 ± 13.2^a)"}, {"measurement": "stomach ghrelin modified by the acyl group corresponding to the ingested lipid", "setting": "[2]; mice, HPLC peak, C-RIA", "value": "stimulated the production of n-octanoyl ghrelin"}, {"measurement": "molar ratio of n-octanoyl/total ghrelin", "setting": "[2]; stomach of treated mice", "value": "over 60%"}, {"measurement": "production of acyl-modified ghrelin in stomach tissue", "setting": "[3]", "value": "stimulated production"}, {"measurement": "expression level of gastric ghrelin mRNA", "setting": "ghrelin mRNA", "value": "did not change"}]}, {"molecule": "des-acyl ghrelin: ghrelin peptide in which the position-3 amino acid is not acylated (GSSFLSPEHQRVQQRKESKKPPAKLQPR; Ghrelin-28 non-acylated; UniProt Q9UBU3 24-51, looked up)", "values": [{"measurement": "recognition by anti-rat ghrelin [D1-D11] antiserum", "setting": "[4]", "value": "did not recognize"}]}, {"molecule": "CCCCCCC(=O)OCC(COC(=O)CCCCCC)OC(=O)CCCCCC", "note": "[glyceryl triheptanoate]", "values": [{"measurement": "appearance of plasma peak f (retention time of n-heptanoyl ghrelin)", "setting": "plasma ghrelin peptides", "value": "observed only in samples from glyceryl triheptanoate-treated mice"}, {"measurement": "appearance of peak b / d (n-heptanoyl ghrelin) immunoreactivity in stomach extracts", "setting": "[5]; mice, HPLC, C-RIA / N-RIA", "value": "observed only in mice fed glyceryl triheptanoate"}, {"measurement": "concentration of peak b (n-heptanoyl ghrelin) determined by C-RIA", "setting": "[5]; [7]", "value": 466.3, "unit": "fmol/tube"}, {"measurement": "concentration of peak d (n-heptanoyl ghrelin) measured by N-RIA", "setting": "[5]; [7]", "value": 74.9, "unit": "fmol/tube"}]}, {"molecule": "n-hexanoyl ghrelin", "values": [{"measurement": "cross-reactivity of N-RIA", "setting": "[4]", "value": 0.3, "unit": "%"}]}, {"molecule": "n-decanoyl ghrelin", "values": [{"measurement": "cross-reactivity of N-RIA", "setting": "[4]", "value": 20, "unit": "%"}]}]}
